# Experimental data published in patent US9364414B2, “Method to protect skin from ultraviolet radiation using novel peptides involved in the improvement of microparasol organization in keratinocytes” (ISP Investments Inc., priority 2011, dated 2016).
# Ends that are not written are not given here.
# Tests used:
# [1] = test system: supranuclear organization of melanosomes in ex-vivo skin; test: Microparasol supranuclear organization in ex-vivo skin (light and electron microscopy); format: cell-based, human; conditions: 0.5% (light microscopy) or 1% (electron microscopy), 48 hours
# Protocol: 6 mm diameter punch biopsies were obtained from a person (light microscopy) and a person (electron microscopy) […]. They were cultivated on culture medium containing 50% of DMEM 1 g/L glucose (Lonza) and 50% of Ham's-F12 (Lonza) supplemented with 10% of FBS (Lonza), 2 mM of L-glutamine (Lonza) and 100 μg/ml of PRIMOCIN™ (InvivoGen). Skin biopsies were maintained at 37° C. in a humidified atmosphere containing 5% of CO2.
# The stock solution of peptide compound SEQ ID NO: 7 was diluted at 0.5% or 1% before use. The biopsies were treated, or not, in duplicate, twice a day with 0.5% (light microscopy) or 1% (electron microscopy) of peptide compound SEQ ID NO: 7 for 48 hours.
# After skin culture, tissues were fixed for 4 hours in buffered 10% formalin. Samples were transferred to baths with ethanol progressively concentrated to remove water, then followed by two baths of xylene to remove the alcohol, and finally embedded in molten paraffin wax. Embedded skin biopsies were then cut with a microtome (Shandon) into 4 μm thick sections and placed on SUPERFROST PLUS™ slides (Thermo Scientific).
# Sections were deparaffinized and rehydrated with several successive xylene, alcohol and water baths. Then, 100 μl of Stock solution were added on each section and slides were incubated 10 minutes at 60° C. […]
# [2] = test system: normal human epidermal melanocytes (NHEM); test: Comet assay on NHEM cells irradiated with UVB; format: cell-based; conditions: peptide 1% (0.5 ppm) 24 hours pretreatment + UVB 30 mJ/cm^2
# Protocol: (§1) NHK and NHEM were placed in culture for 24 hours in the presence of a solution of peptide compound SEQ ID NO: 7 at 50 ppm diluted at 1% before use, then irradiated with UVB radiation in an amount of 30 mJ/cm^2 for NHEM and 60 mJ/cm^2 for NHK. A control condition was also used without a peptide active agent. The cells were then detached from their support by trypsin, then centrifuged at 900 rpm for 5 minutes in order to concentrate them and count them.
# (§2) A defined number of cells (25,000 cells) was then embedded in a Low Melting agarose gel at 0.75%, then deposited on a glass slide previously coated with 1% agarose. The slides were then immersed in a lysis solution for 1 hour 30 minutes at 4° C., then in an alkaline solution for 20 minutes at 4° C. The cells were thus lysed and the DNA was denatured. The slides were immersed in an electrophoresis solution before an electric field (20 V-250 mA) is applied. The DNA thus denatured was subjected to migration in the agarose gel at 4° C. The application of a fluorescent DNA dye on the slides (propidium iodide at 2 μg/ml) makes it possible to observe, under the microscope, DNA appearing in the form of comets if it has been damaged.
# (§3) Finally, quantification software makes it possible to determine the Tail Moment, means applied to each condition tested. […]
# [3] = test system: dynactin subunit p150Glued; test: Expression of p150Glued in ex-vivo human skin biopsies (immunostaining); format: cell-based; conditions: 100 ppm stock diluted at 1%, twice a day, 48 hours
# Protocol: Samples of ex-vivo human skin biopsies from a person, were cultured at the air/liquid interface. The samples were treated twice a day with a stock solution of peptide SEQ ID NO: 7 at 100 ppm, diluted at the 1%, for 48 hours.
# Immunostaining was then performed by means of an antibody directed to p150Glued subunit (REF.Santacruz sc-9804), followed by a secondary antibody, coupled with a green fluorescent marker (REF Invitrogen, A11055). The skin sections were then examined using Nikon® Eclipse 80i microscope.
# Quantification was carried out with VOLOCITY® image analysis software.
# [4] = test system: normal human keratinocytes (NHK); test: Comet assay on NHK cells irradiated with UVB; format: cell-based
# Protocol: as §1, §2, §3
# [5] = test system: keratinocytes containing melanosomes (NHK/NHEM co-culture); test: Frequency of keratinocytes containing melanosomes in NHK/NHEM co-culture after p150Glued siRNA; format: cell-based, human; conditions: after 10 nM p150Glued siRNA, 48 hours
# Protocol: Normal human primary keratinocytes (NHK) and normal human epidermal melanocytes (NHEM) were co-cultured (ratio: 1 melanocyte/4 keratinocytes) in Keratinocyte Serum Free Medium (KSFM, GIBCO) supplemented with 50 μg/ml bovine pituitary extract, 5 ng/ml human recombinant EGF (GIBCO) and 100 μg/ml Primocin™ (INVIVOGEN). Cells were maintained at 37° C. in a humidified atmosphere containing 5% CO2.
# NHK and NHEM cells co-seeded for 48 hours were treated, or not, in duplicate, once with 10 nM of p150Glued-specific siRNA.
# Cells were then treated, or not, in duplicate, twice a day for 48 hours with a solution of peptide compound SEQ ID NO: 7 at 100 ppm, diluted at 0.5% or 1% before use, without medium change.
# Cells were rinsed with PBS and fixed with cold methanol for 4 minutes. Cellular membranes were permeabilized using 0.1% X-100 Triton (Fisher Scientific) for 10 minutes. Unspecific binding sites were blocked, then cells were incubated with the primary antibodies directed to melanosomes (mouse monoclonal anti-“pmel17” Abcam, ab34165 and rabbit monoclonal anti “keratin-14” Abcam, ab51054) diluted in PBS, for 1 hour and a half, under agitation, at room temperature, in a damp room. […]
# Three images per condition were analyzed. […] The frequency of keratinocyte containing melanosomes was evaluated and expressed in percentage. […]
# [6] = test system: cyclobutane pyrimidine dimers (CPDs) in NHEM; test: Amount of cyclobutane pyrimidine dimers (CPDs) in melanocytes after UVB (immunostaining); format: cell-based, human; conditions: UVB 75 mJ/cm^2
# Protocol: DNA damages induced by UVB radiation can be monitored by quantifying the amount of cyclobutane pyrimidine dimers (CPDs), which are formed after conformational changes in the DNA structure. […] The quantification of CPDs was carried out by immunohistochemical assay.
# NHEM (normal human epidermis melanocytes) were grown in Melanocyte Growth Medium (PromoCell) supplemented with 1 ng/ml human basic fibroblast growth factor, 52 μg/ml medium bovine pituitary extract, 0.5 μg/ml hydrocortisone, 5 μg/ml human recombinant insulin, 10 ng/ml phorbol 12-myristate 13-acetate (PMA) and 100 μg/ml of PRIMOCIN (In vivoGen). When the cells were sub-cultured for the experiment, the same medium depleted in PMA was used. Cells were maintained at 37° C. in a humidified atmosphere containing 5% of CO2.
# Cells were treated, or not, in duplicate, twice a day for 48 hours with a solution of peptide compound SEQ ID NO: 7 at 100 ppm, diluted at 0.5% or 1% before use. Then, they were irradiated, or not, with a 75 mJ/cm^2 UVB dose using a specific oven to ensure the homogeneity of the treatment. […]
# Three images per condition were analyzed. Each picture was converted in grey levels and analyzed with Image-Pro Analyzer 6.3 software (MediaCybernetics, Inc.) which generated a histogram representing the number of pixels per intensity. The sum of all intensities was calculated. […]
substance,measurement,setting,value
Asp-Leu-Lys-Lys-NH2 (DLKK-NH2) [SEQ ID NO: 7],supranuclear organization of melanosomes above the nucleus,[1],better supranuclear organization of melanosomes
same,reduction in Tail Moment versus UVB condition,[2],55%
same,increase of the dynactin subunit p150Glued staining,[3],80%
same,reduction in Tail Moment versus UVB condition,[4]; peptide 1% (0.5 ppm) 24 hours pretreatment + UVB 60 mJ/cm^2,70%
same,Tail Moment,"[4]; peptide 1% (0.5 ppm) 24 hours pretreatment + UVB 60 mJ/cm^2, UVB alone 170.27, control 1.66",51.36
same,frequency of keratinocyte containing melanosomes compared to the control,[5]; peptide 0.5% (0.5 ppm),partially restored
same,frequency of keratinocyte containing melanosomes compared to the control,[5]; peptide 1% (1 ppm),fully restored
same,change of CPDs after UVB compared to the non treated condition,[6]; pretreated 48 hours with 0.5% (0.5 ppm),−39%
same,change of CPDs after UVB compared to the non treated condition,[6]; pretreated 48 hours with 1% (1 ppm),−59%
